Assay [1] has as its system Plasmodium berghei. Briefly: Antimalarial activity against chloroquine-sensitive Plasmodium berghei ANKA infected in Swiss albino mouse assessed as suppression of parasitemia at 8 mg/kg/day, ip measured on day 4 post infection by Giemsa staining relative to control. The assay is classed as functional. The settings on record: route intraperitoneal.
For assay [2], the system named is Plasmodium berghei. Briefly: Antimalarial activity against chloroquine-sensitive Plasmodium berghei ANKA infected in ip dosed Swiss albino mouse assessed as suppression of parasitemia measured on day 4 post infection by Giemsa staining. The assay is classed as functional. Particulars: 96 h.

Structures are written as SMILES.

The term ED50 denotes the dose that gives a 50% effect, or the effect in half of the subjects. For `CCN(CC)CCCC(C)Nc1ccnc2cc(Cl)ccc12` (configuration not stated) [CHLOROQUINE], in the assay on Plasmodium berghei [1], the Activity is 35%. Besides, in the assay on Plasmodium berghei [2], the median effective dose (ED50) stood at 1.9 mg/kg/day.

For the origin of these results see ChEMBL document CHEMBL2150944, “Antimalarial activity of pyrroloiminoquinones from the Australian marine sponge Zyzzya sp” (J Med Chem, 2012).
